Experimental data reported in publication PMC4492759, “Pharmacological profiling of the hemodynamic effects of cannabinoid ligands: a combined in vitro and in vivo approach” (Pharmacology Research & Perspectives, 2015).

Columns and labels:
[1] = test system: rat GPR55; test: [35S]-GTPγS binding, membranes of HEK293s cells transfected with rat GPR55; type: biochemical; details: GTPγS binding, GPR55 activation
Protocol: (§1) HEK293s cells were transiently transfected with cDNA encoding rat or mouse CB1 or GPR55 and membranes were prepared as previously described (Ryberg et al. [2007]). In short, agonist activities in [^35S]-GTPγS binding assays were determined by the addition of ligand at 30°C for 45 min in membrane buffer [50 mmol/L NaCl, 5 mmol/L MgCl2, 0.5 mmol/L EDTA, 25 mmol/L HEPES (all Sigma, Gillingham, Dorset, UK); pH 7.4] containing 0.05 μg μL^−1 of membrane protein with 0.01% BSA, 25 μmol/L guanosine 5′-diphosphate (GDP), 100 μmol/L dithiothreitol (DTT), and 0.53 nmol/L [^35S]GTPγS (PerkinElmer) in a final volume of 200 μL. Antagonist assays were performed similarly, with the addition of an EC80 concentration of CP55940 as a nonselective CB1/CB2 agonist in conjunction with the ligand to be tested. Nonspecific binding was determined in the presence of 20 μmol/L unlabeled GTPγS. The reaction was terminated by addition of ice-cold wash buffer (50 mmol/L Tris-HCl, 5 mmol/L MgCl2, 50 mmol/L NaCl; pH 7.4) followed by rapid filtration under vacuum through 96-well B-glass fiber filter plates (PerkinElmer, Waltham, Massachusetts, USA) using a Biomek FX (Beckman Coulter, Bromma, Sweden). The filter plates were dried (30 min at 50°C) before scintillation liquid (PerkinElmer) was added onto the filters and the bound radioactivity was determined using a scintillation counter (Wallac). Data were fitted with a four-parameter logistic fit using the equation y = A + (B − A)/1 + ((C/x)^D), where A is no activation, B is full activation, C is the EC50, and D is the Hill slope. All data were based on at least three independent experiments.

[2] = test system: conscious WT, CB1−/− and GPR55−/− mice; test: Blood pressure and heart rate responses in conscious mice (WT, CB1−/−, GPR55−/−); details: for HR bradycardic response - area above the curve / MABP depressor response - area above the curve: metoprolol pretreated
[3] = test system: anesthetized WT and GPR55−/− mice; test: Hemodynamic responses (MABP, HR) in anesthetized WT and GPR55−/− mice; type: in vivo, mouse; details: O-1602 5–100 ng kg−1 i.v.; WT mice
Protocol: (§2) All experiments performed under terminal anesthesia were carried out following approval by Robert Gordon University Animal Ethics Panel. Anesthesia was induced in male SD rats (200–300 g) by sodium pentobarbital [60 mg kg^−1 intraperitoneal (i.p.) injection]. Male/female WT and GPR55^−/− mice (25–35 g) were anesthetized with a mixture of ketamine (120 mg kg^−1) and xylazine (16 mg kg^−1) via i.p. injection. For both species the trachea was cannulated to allow artificial respiration with room air when required (54 strokes min^−1 and tidal volume 1.5 mL 100 g^−1 for rats; 120 strokes min^−1 and tidal volume 100 μL 10 g^−1 for mice) and the left carotid artery and right jugular vein were cannulated for the measurement of arterial BP (MLT844 Physiological Pressure Transducer; AD Instruments, Oxford, UK) and drug administration, respectively. Core temperature was monitored continuously and maintained at 37–38°C with the aid of a Vetcare heated pad (Harvard Apparatus Ltd., Boston, Massachusetts, USA). Anesthesia was monitored by foot pinch reflex and maintained throughout by administration of additional doses of anesthetic (rats: 3–4 mg kg^−1 of sodium pentobarbital salt i.v.; mice: 50 μL 25 g^−1of ketamine/xylazine i.p.) every 40 min, or as required. […] Heart rate (HR) was calculated from the ECG and recorded throughout the entire experimental period. After a stabilization period of approximately 15 min dose–response experiments were carried out as described below.
(§3) As a preliminary assessment of the effects of ACEA on arterial BP, a single bolus intravenous dose (3 mg kg^−1; selected from the literature as a dose known to produce a depressor response) was given to anesthetized rats. […] The time interval between drug administrations was 10–15 min to allow BP values to return to predrug values.

[4] = target: T1, mouse CB1 (Mus musculus, UniProt P47746); test: [35S]-GTPγS binding, membranes of HEK293s cells transfected with mouse CB1; type: biochemical; details: agonist mode; mean ± SEM, at least three experiments; read-out: CB1 EC50, Mouse
T1 construct: expressed in transfected cells; host or cells: HEK293s, transient transfection; membranes prepared
Protocol: (§4) Antagonist assays were performed similarly, with the addition of an EC80 concentration of CP55940 as a nonselective CB1/CB2 agonist in conjunction with the ligand to be tested. Nonspecific binding was determined in the presence of 20 μmol/L unlabeled GTPγS. The reaction was terminated by addition of ice-cold wash buffer (50 mmol/L Tris-HCl, 5 mmol/L MgCl2, 50 mmol/L NaCl; pH 7.4) followed by rapid filtration under vacuum through 96-well B-glass fiber filter plates (PerkinElmer, Waltham, Massachusetts, USA) using a Biomek FX (Beckman Coulter, Bromma, Sweden). The filter plates were dried (30 min at 50°C) before scintillation liquid (PerkinElmer) was added onto the filters and the bound radioactivity was determined using a scintillation counter (Wallac). Data were fitted with a four-parameter logistic fit using the equation y = A + (B − A)/1 + ((C/x)^D), where A is no activation, B is full activation, C is the EC50, and D is the Hill slope. All data were based on at least three independent experiments.

[5] = test system: anesthetized Sprague–Dawley (SD) rats; test: Hemodynamic responses (MABP, HR) in anesthetized normotensive rats; type: in vivo, rat; details: O-1602 5–100 ng kg−1 i.v.
Protocol: as §2, §3

[6] = target: T2, rat CB1 (Rattus norvegicus, UniProt P20272); test: [35S]-GTPγS binding, membranes of HEK293s cells transfected with rat CB1; type: biochemical; details: agonist mode; mean ± SEM, at least three experiments; read-out: CB1 EC50, Rat
T2 construct: expressed in transfected cells; host or cells: HEK293s, transient transfection; membranes prepared
Protocol: as §4

[7] = target: T3, mouse GPR55 (Mus musculus, UniProt Q3UJF0); test: [35S]-GTPγS binding, membranes of HEK293s cells transfected with mouse GPR55; type: biochemical; details: agonist mode; mean ± SEM, at least three experiments; read-out: GPR55 EC50, Mouse
T3 construct: expressed in transfected cells; host or cells: HEK293s, transient transfection; membranes prepared
Protocol: as §1

[8] = O-1602 5 mg kg−1, +CBD (5 mg kg−1)
[9] = O-1602 5 mg kg−1, column Control
[10] = O-1602 10 mg kg−1, +CBD (5 mg kg−1)
[11] = O-1602 10 mg kg−1, column Control
[12] = O-1602 15 mg kg−1, +CBD (5 mg kg−1)
[13] = O-1602 15 mg kg−1, column Control

T2 sequence (P20272 whole entry): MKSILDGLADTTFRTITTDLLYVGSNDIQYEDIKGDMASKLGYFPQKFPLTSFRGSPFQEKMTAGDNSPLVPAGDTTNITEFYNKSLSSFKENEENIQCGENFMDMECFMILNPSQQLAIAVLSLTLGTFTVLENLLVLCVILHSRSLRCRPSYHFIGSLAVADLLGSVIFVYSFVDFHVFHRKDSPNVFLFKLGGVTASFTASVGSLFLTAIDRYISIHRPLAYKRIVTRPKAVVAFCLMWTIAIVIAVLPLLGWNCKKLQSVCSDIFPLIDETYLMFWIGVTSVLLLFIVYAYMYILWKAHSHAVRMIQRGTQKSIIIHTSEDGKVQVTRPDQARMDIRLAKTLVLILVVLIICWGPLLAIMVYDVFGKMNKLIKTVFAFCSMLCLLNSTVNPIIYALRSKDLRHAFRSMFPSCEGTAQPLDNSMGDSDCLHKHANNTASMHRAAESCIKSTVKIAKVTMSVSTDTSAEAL
T3 sequence (Q3UJF0 whole entry): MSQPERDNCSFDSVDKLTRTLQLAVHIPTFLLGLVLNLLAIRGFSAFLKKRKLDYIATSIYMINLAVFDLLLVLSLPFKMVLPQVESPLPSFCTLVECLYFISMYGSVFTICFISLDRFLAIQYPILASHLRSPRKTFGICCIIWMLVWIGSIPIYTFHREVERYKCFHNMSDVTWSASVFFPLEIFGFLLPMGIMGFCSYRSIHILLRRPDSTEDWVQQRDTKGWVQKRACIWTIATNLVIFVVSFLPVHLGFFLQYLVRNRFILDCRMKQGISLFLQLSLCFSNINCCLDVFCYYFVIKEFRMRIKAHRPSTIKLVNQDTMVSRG
T1 sequence (P47746 whole entry): as the sequence (P20272 whole entry) above, with E95D counted along it

In the case of `C=C(C)[C@@H]1CCC(C)=C[C@H]1c1c(C)cc(O)cc1O` [O-1602], the “potency at GPR55 relative to that of ACEA” value [1] is reported as “approximately 5 times”, the “HR bradycardic response - area above the curve” value (from here on “HR bradycardic response”) ([2]; O-1602 5 mg kg−1, +AM281) is reported as 55.3 ± 20.9 arbitrary units and the “MABP depressor response - area above the curve” value (from here on “MABP depressor response”) ([2]; O-1602 5 mg kg−1, +AM281) is reported as 64.6 ± 17.5 arbitrary units. The “HR bradycardic response” value ([2]; O-1602 5 mg kg−1, +CBD & AM281) was 154.8 ± 61.7 arbitrary units, the “HR bradycardic response” value [2, 8] was 17.4 ± 11.7 arbitrary units and the “MABP depressor response” value [2, 8] was 99.6 ± 25.8 arbitrary units. The “MABP depressor response” value ([2]; O-1602 5 mg kg−1, +CBD and AM281) was 73.3 ± 24.5 arbitrary units, the “HR bradycardic response” value [2, 9] was 41.1 ± 20.8 arbitrary units and the “MABP depressor response” value [2, 9] was 91.9 ± 38.2 arbitrary units. The “HR bradycardic response” value ([2]; O-1602 10 mg kg−1, +AM281) was 130.5 ± 20.5 arbitrary units, the “MABP depressor response” value ([2]; O-1602 10 mg kg−1, +AM281) was 95.2 ± 6.5 arbitrary units and the “HR bradycardic response” value ([2]; O-1602 10 mg kg−1, +CBD & AM281) was 298.2 ± 111.7 arbitrary units. For the same molecule, the “HR bradycardic response” value [2, 10] was 186.8 ± 42.1 arbitrary units, the “MABP depressor response” value [2, 10] was 73.5 ± 17.8 arbitrary units and the “MABP depressor response” value ([2]; O-1602 10 mg kg−1, +CBD and AM281) was 114.6 ± 17.6 arbitrary units. For the same molecule, the “HR bradycardic response” value [2, 11] was 48.7 ± 25.4 arbitrary units, the “MABP depressor response” value [2, 11] was 44.1 ± 9.6 arbitrary units and the “HR bradycardic response” value ([2]; O-1602 15 mg kg−1, +AM281) was 183.1 ± 50.9 arbitrary units. For the same molecule, the “MABP depressor response” value ([2]; O-1602 15 mg kg−1, +AM281) was 101.5 ± 4.1 arbitrary units, the “HR bradycardic response” value ([2]; O-1602 15 mg kg−1, +CBD & AM281) was 286.6 ± 105.4 arbitrary units and the “HR bradycardic response” value [2, 12] was 197.1 ± 17.1 arbitrary units. The “MABP depressor response” value [2, 12] was 148.9 ± 17.1 arbitrary units, the “MABP depressor response” value ([2]; O-1602 15 mg kg−1, +CBD and AM281) was 119.7 ± 18.1 arbitrary units and the “HR bradycardic response” value [2, 13] was 95.3 ± 6.5 arbitrary units. For the same molecule, the “MABP depressor response” value [2, 13] was 61.3 ± 10.9 arbitrary units, the “effect on MABP” value ([2]; O-1602, conscious CB1−/− mice) was “dose-dependent depressor response” and the “effect on HR” value ([2]; O-1602 alone, highest dose tested, conscious WT mice) was “transient bradycardia”. The “effect on MABP” value ([2]; O-1602 alone, conscious WT mice) was “no effect”, the depressor response ([2]; O-1602 in the presence of AM281 (10 mg kg−1), GPR55−/− mice) was “did not elicit a depressor response” and the “changes in MABP or HR over and above vehicle” value [3] was “did not produce any changes”. The EC50 [4] was > 30 µM, the “changes in MABP or HR over and above vehicle” value [5] was “did not produce any changes” and the EC50 [6] was > 30 µM. The EC50 [7] was 12 ± 4 nM.
